pEC50, pIC50: −log10 of the molar value.
What follows are compounds tested against varicella zoster virus DNA polymerase (Varicella-zoster virus (strain Dumas) (HHV-3) (Human herpesvirus 3), UniProt P09252) (assay: VZV polymerase assay (AlphaLISA)). Conditions: VZV polymerase 0.4 nM, 30 min pre-incubation, 60 minute at 37° C.
Assay type: biochemical
Method: (§1) Human cytomegalovirus and varicella zoster virus DNA polymerases were expressed via baculovirus vector in SF21 cells and purified. Heterodimeric nucleic acid substrate used in the herpesvirus polymerase reactions were generated by annealing a 59-mer template to a 17-mer digoxigenin-labeled primer. Polymerase (HCMV final concentration of 0.2 nM; VZV final concentration of 0.4 nM) was combined with an inhibitor compound or DMSO in assay buffer (10 mM HEPES, pH 7.5, 25 mM KCl, 25 mM NaCl, 5 mM MgCl2, 5% glycerol, 0.67 mg/ml bovine serum albumin, and 1 mM tris(2-carboxyethyl)phosphine)), and this mixture was pre-incubated for 30 minutes at room temperature in 384-well microtiter plates. The polymerization reaction was initiated by the addition of template/primer substrate (final concentration: 1.6 nM), and dNTPs (final concentration: 24 nM dCTP, 24 nMdGTP, 16 nM dATP, 16 nM dTTP, and 0.8 nM biotin-dUTP). After a 60 minute incubation period at 37° C., the reactions were terminated using quench buffer (25 mM HEPES pH 7.5, 100 mM NaCl, 0.25% Tween-20, 12 mM EDTA, and 1 mg/ml bovine serum albumin). Incorporation of biotinylated UTP was detected with 2.5-5 μg/mL anti-DIG AlphaLISA acceptor beads and 5-10 μg/mL streptavidin AlphaLISA donor beads (PerkinElmer). Compound effects were normalized to the window defined by the controls (DMSO only and pre-quenched wells), and were fit using a 4-parameter algorithm to report an IC50.
With `Cc1nc2cc(-c3cc(C(F)(F)F)[nH]n3)c(O[C@H]3CCN4C(=O)OC[C@@H]4C3)cc2c(=O)n1Cc1ccc(C#N)cc1` [Example 76] the pIC50 was 7.96.
`Cc1nc2ccc(O[C@H]3CCN4C(=O)OC[C@@H]4C3)cc2c(=O)n1Cc1ccc(Cl)cc1` [Example 40] showed a pIC50 of 7.77.
`O=C1OC[C@@H]2C[C@@H](Oc3cc4c(=O)n(Cc5ccc(Cl)cc5)ccc4nc3-c3cnco3)CCN12` [Example 38] showed a pIC50 of 9.48.
`Cc1nc2cc(-c3cnc(N4CCOCC4)nc3)c(O[C@H]3CCN4C(=O)OC[C@@H]4C3)cc2c(=O)n1Cc1ccc(Cl)cc1` [Example 97] showed a pIC50 of 7.82.
`N#Cc1cc2ncn(Cc3ccc(Cl)cc3)c(=O)c2cc1O[C@H]1CCN2C(=O)OC[C@@H]2C1` [Example 41] was tested, and the pIC50 was 8.96.
`O=C1OC[C@@H]2C[C@@H](Oc3cc4c(=O)n(Cc5ccc(Cl)cc5)cnc4nc3-c3cnn(C(F)F)c3)CCN12` [Example 36] showed a pIC50 of 8.82.
`O=C1OC[C@@H]2C[C@@H](Oc3cc(-c4cnco4)c4ncn(Cc5ccc(Cl)cc5)c(=O)c4c3)CCN12` [Example 42] showed a pIC50 of 7.89.
In the case of `O=C1OC[C@@H]2C[C@@H](Oc3cnc4c(C5CC5)cn(Cc5ccc(Cl)cc5)c(=O)c4c3)CCN12` [Example 1], the pIC50 was 7.12.
With `O=C1OC[C@@H]2C[C@@H](Oc3ccc4ccn(Cc5ccc(Cl)cc5)c(=O)c4c3)CCN12` [Example 23] the pIC50 was 7.59.
With `Cc1nc2cc(-c3ccn(C(F)F)n3)c(O[C@H]3CCN4C(=O)OC[C@@H]4C3)cc2c(=O)n1Cc1ccc(C#N)cc1` [Example 11] the pIC50 was 8.60.
Work on `CCc1nc2cc(-c3cnc(OC)nc3)c(O[C@H]3CCN4C(=O)OC[C@@H]4C3)cc2c(=O)n1Cc1ccc(Cl)cc1` [Example 78] yielded a pIC50 of 7.70.
`O=C1OC[C@@H]2C[C@@H](Oc3cnc4ccn(Cc5ccc(Cl)cc5)c(=O)c4c3)CCN12` [Example 25] showed a pIC50 of 7.26.

What follows are compounds tested on HSV1 (assay: Viral qPCR assay, HSV1). Conditions: Human alphaherpesvirus 1, 72 h, infected cells, viral genome copies by qPCR normalized to PPIA, read-out: HSV1 Cell EC50.
Assay type: cell-based
In short: (§2)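 Cells (MRC5/Vero/MeWo) + virus → onto compound plates, 10-pt 3-fold dilutions; ~72 hrs, 37° C, 5% CO2. Lysis with NP-40/Tween-20/proteinase K, 56° C 1 h, then 95° C 10 min. qPCR of viral gene vs PPIA, copies from plasmid standards. 4-parameter EC50.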
Work on `Cc1nc2cc(-c3cc(C(F)(F)F)[nH]n3)c(O[C@H]3CCN4C(=O)OC[C@@H]4C3)cc2c(=O)n1Cc1ccc(C#N)cc1` [Example 76] yielded a pEC50 of 6.39.
For `Cc1nc2ccc(O[C@H]3CCN4C(=O)OC[C@@H]4C3)cc2c(=O)n1Cc1ccc(Cl)cc1` [Example 40], the pEC50 was 6.41.
`O=C1OC[C@@H]2C[C@@H](Oc3cc4c(=O)n(Cc5ccc(Cl)cc5)ccc4nc3-c3cnco3)CCN12` [Example 38] showed a pEC50 of 7.32.
`Cc1nc2cc(-c3cnc(N4CCOCC4)nc3)c(O[C@H]3CCN4C(=O)OC[C@@H]4C3)cc2c(=O)n1Cc1ccc(Cl)cc1` [Example 97] showed a pEC50 of 6.79.
`N#Cc1cc2ncn(Cc3ccc(Cl)cc3)c(=O)c2cc1O[C@H]1CCN2C(=O)OC[C@@H]2C1` [Example 41] gave a pEC50 of 6.88.
In the case of `O=C1OC[C@@H]2C[C@@H](Oc3cc4c(=O)n(Cc5ccc(Cl)cc5)cnc4nc3-c3cnn(C(F)F)c3)CCN12` [Example 36], the pEC50 was 7.31.
Compound `O=C1OC[C@@H]2C[C@@H](Oc3cc(-c4cnco4)c4ncn(Cc5ccc(Cl)cc5)c(=O)c4c3)CCN12` [Example 42] has a pEC50 of 6.63.
`O=C1OC[C@@H]2C[C@@H](Oc3ccc4ccn(Cc5ccc(Cl)cc5)c(=O)c4c3)CCN12` [Example 23] showed a pEC50 of 5.88.
`CCc1nc2cc(-c3cnc(OC)nc3)c(O[C@H]3CCN4C(=O)OC[C@@H]4C3)cc2c(=O)n1Cc1ccc(Cl)cc1` [Example 78] showed a pEC50 of 6.39.
With `O=C1OC[C@@H]2C[C@@H](Oc3cnc4ccn(Cc5ccc(Cl)cc5)c(=O)c4c3)CCN12` [Example 25] the pEC50 was 5.88.

Same assay, conditions: infected cells, ~72 hrs, viral genome copies by qPCR normalized to PPIA; read-out: HSV1 Cell EC50
Work on `O=C1OC[C@@H]2C[C@@H](Oc3cnc4c(C5CC5)cn(Cc5ccc(Cl)cc5)c(=O)c4c3)CCN12` [Example 1] yielded a pEC50 of 5.57.
`Cc1nc2cc(-c3ccn(C(F)F)n3)c(O[C@H]3CCN4C(=O)OC[C@@H]4C3)cc2c(=O)n1Cc1ccc(C#N)cc1` [Example 11] showed a pEC50 of 7.29.

These compounds were tested on CMV (assay: Viral qPCR assay, CMV). Conditions: Human betaherpesvirus 5, 72 h, infected cells, viral genome copies by qPCR normalized to PPIA, read-out: CMV Cell EC50.
Assay type: cell-based
In short: as §2
In the case of `Cc1nc2cc(-c3cc(C(F)(F)F)[nH]n3)c(O[C@H]3CCN4C(=O)OC[C@@H]4C3)cc2c(=O)n1Cc1ccc(C#N)cc1` [Example 76], the pEC50 was 6.58.
Compound `Cc1nc2ccc(O[C@H]3CCN4C(=O)OC[C@@H]4C3)cc2c(=O)n1Cc1ccc(Cl)cc1` [Example 40] has a pEC50 of 6.80.
In the case of `O=C1OC[C@@H]2C[C@@H](Oc3cc4c(=O)n(Cc5ccc(Cl)cc5)ccc4nc3-c3cnco3)CCN12` [Example 38], the pEC50 was 7.62.
For `Cc1nc2cc(-c3cnc(N4CCOCC4)nc3)c(O[C@H]3CCN4C(=O)OC[C@@H]4C3)cc2c(=O)n1Cc1ccc(Cl)cc1` [Example 97], the pEC50 was 6.70.
With `N#Cc1cc2ncn(Cc3ccc(Cl)cc3)c(=O)c2cc1O[C@H]1CCN2C(=O)OC[C@@H]2C1` [Example 41] the pEC50 was 7.11.
In the case of `O=C1OC[C@@H]2C[C@@H](Oc3cc4c(=O)n(Cc5ccc(Cl)cc5)cnc4nc3-c3cnn(C(F)F)c3)CCN12` [Example 36], the pEC50 was 7.43.
`O=C1OC[C@@H]2C[C@@H](Oc3cc(-c4cnco4)c4ncn(Cc5ccc(Cl)cc5)c(=O)c4c3)CCN12` [Example 42] gave a pEC50 of 6.74.
`O=C1OC[C@@H]2C[C@@H](Oc3ccc4ccn(Cc5ccc(Cl)cc5)c(=O)c4c3)CCN12` [Example 23] showed a pEC50 of 6.32.
`CCc1nc2cc(-c3cnc(OC)nc3)c(O[C@H]3CCN4C(=O)OC[C@@H]4C3)cc2c(=O)n1Cc1ccc(Cl)cc1` [Example 78] gave a pEC50 of 6.75.
Work on `O=C1OC[C@@H]2C[C@@H](Oc3cnc4ccn(Cc5ccc(Cl)cc5)c(=O)c4c3)CCN12` [Example 25] yielded a pEC50 of 6.24.

Same assay, conditions: infected cells, ~72 hrs, viral genome copies by qPCR normalized to PPIA; read-out: CMV Cell EC50
Compound `O=C1OC[C@@H]2C[C@@H](Oc3cnc4c(C5CC5)cn(Cc5ccc(Cl)cc5)c(=O)c4c3)CCN12` [Example 1] has a pEC50 of 5.98.
`Cc1nc2cc(-c3ccn(C(F)F)n3)c(O[C@H]3CCN4C(=O)OC[C@@H]4C3)cc2c(=O)n1Cc1ccc(C#N)cc1` [Example 11] showed a pEC50 of 7.27.

These compounds were tested against Human cytomegalovirus DNA polymerase (Human cytomegalovirus (strain AD169) (HHV-5) (Human herpesvirus 5), UniProt P08546) (assay: CMV polymerase assay (AlphaLISA)). Conditions: HCMV polymerase 0.2 nM, 30 min pre-incubation, 60 minute at 37° C.
Assay type: biochemical
Method: as §1
With `Cc1nc2cc(-c3cc(C(F)(F)F)[nH]n3)c(O[C@H]3CCN4C(=O)OC[C@@H]4C3)cc2c(=O)n1Cc1ccc(C#N)cc1` [Example 76] the pIC50 was 7.96.
Compound `Cc1nc2ccc(O[C@H]3CCN4C(=O)OC[C@@H]4C3)cc2c(=O)n1Cc1ccc(Cl)cc1` [Example 40] has a pIC50 of 7.96.
`O=C1OC[C@@H]2C[C@@H](Oc3cc4c(=O)n(Cc5ccc(Cl)cc5)ccc4nc3-c3cnco3)CCN12` [Example 38] showed a pIC50 of 8.96.
Work on `Cc1nc2cc(-c3cnc(N4CCOCC4)nc3)c(O[C@H]3CCN4C(=O)OC[C@@H]4C3)cc2c(=O)n1Cc1ccc(Cl)cc1` [Example 97] yielded a pIC50 of 7.85.
Work on `N#Cc1cc2ncn(Cc3ccc(Cl)cc3)c(=O)c2cc1O[C@H]1CCN2C(=O)OC[C@@H]2C1` [Example 41] yielded a pIC50 of 8.57.
`O=C1OC[C@@H]2C[C@@H](Oc3cc4c(=O)n(Cc5ccc(Cl)cc5)cnc4nc3-c3cnn(C(F)F)c3)CCN12` [Example 36] gave a pIC50 of 8.72.
Compound `O=C1OC[C@@H]2C[C@@H](Oc3cc(-c4cnco4)c4ncn(Cc5ccc(Cl)cc5)c(=O)c4c3)CCN12` [Example 42] has a pIC50 of 7.68.
Compound `O=C1OC[C@@H]2C[C@@H](Oc3cnc4c(C5CC5)cn(Cc5ccc(Cl)cc5)c(=O)c4c3)CCN12` [Example 1] has a pIC50 of 7.16.
`O=C1OC[C@@H]2C[C@@H](Oc3ccc4ccn(Cc5ccc(Cl)cc5)c(=O)c4c3)CCN12` [Example 23] gave a pIC50 of 7.40.
For `Cc1nc2cc(-c3ccn(C(F)F)n3)c(O[C@H]3CCN4C(=O)OC[C@@H]4C3)cc2c(=O)n1Cc1ccc(C#N)cc1` [Example 11], the pIC50 was 9.26.
For `CCc1nc2cc(-c3cnc(OC)nc3)c(O[C@H]3CCN4C(=O)OC[C@@H]4C3)cc2c(=O)n1Cc1ccc(Cl)cc1` [Example 78], the pIC50 was 7.82.
`O=C1OC[C@@H]2C[C@@H](Oc3cnc4ccn(Cc5ccc(Cl)cc5)c(=O)c4c3)CCN12` [Example 25] was tested, and the pIC50 was 7.12.

Each compound was assayed on HSV2 (assay: Viral qPCR assay, HSV2). Conditions: Human alphaherpesvirus 2, 72 h, infected cells, viral genome copies by qPCR normalized to PPIA, read-out: HSV2 Cell EC50.
Assay type: cell-based
In short: as §2
With `Cc1nc2cc(-c3cc(C(F)(F)F)[nH]n3)c(O[C@H]3CCN4C(=O)OC[C@@H]4C3)cc2c(=O)n1Cc1ccc(C#N)cc1` [Example 76] the pEC50 was 6.51.
`Cc1nc2ccc(O[C@H]3CCN4C(=O)OC[C@@H]4C3)cc2c(=O)n1Cc1ccc(Cl)cc1` [Example 40] gave a pEC50 of 6.52.
`O=C1OC[C@@H]2C[C@@H](Oc3cc4c(=O)n(Cc5ccc(Cl)cc5)ccc4nc3-c3cnco3)CCN12` [Example 38] gave a pEC50 of 7.55.
`Cc1nc2cc(-c3cnc(N4CCOCC4)nc3)c(O[C@H]3CCN4C(=O)OC[C@@H]4C3)cc2c(=O)n1Cc1ccc(Cl)cc1` [Example 97] showed a pEC50 of 7.02.
`N#Cc1cc2ncn(Cc3ccc(Cl)cc3)c(=O)c2cc1O[C@H]1CCN2C(=O)OC[C@@H]2C1` [Example 41] showed a pEC50 of 7.12.
`O=C1OC[C@@H]2C[C@@H](Oc3cc4c(=O)n(Cc5ccc(Cl)cc5)cnc4nc3-c3cnn(C(F)F)c3)CCN12` [Example 36] was tested, and the pEC50 was 7.55.
`O=C1OC[C@@H]2C[C@@H](Oc3cc(-c4cnco4)c4ncn(Cc5ccc(Cl)cc5)c(=O)c4c3)CCN12` [Example 42] was tested, and the pEC50 was 7.04.
Work on `O=C1OC[C@@H]2C[C@@H](Oc3ccc4ccn(Cc5ccc(Cl)cc5)c(=O)c4c3)CCN12` [Example 23] yielded a pEC50 of 6.02.
For `CCc1nc2cc(-c3cnc(OC)nc3)c(O[C@H]3CCN4C(=O)OC[C@@H]4C3)cc2c(=O)n1Cc1ccc(Cl)cc1` [Example 78], the pEC50 was 6.65.
For `O=C1OC[C@@H]2C[C@@H](Oc3cnc4ccn(Cc5ccc(Cl)cc5)c(=O)c4c3)CCN12` [Example 25], the pEC50 was 6.14.

Same assay, conditions: infected cells, ~72 hrs, viral genome copies by qPCR normalized to PPIA; read-out: HSV2 Cell EC50
`O=C1OC[C@@H]2C[C@@H](Oc3cnc4c(C5CC5)cn(Cc5ccc(Cl)cc5)c(=O)c4c3)CCN12` [Example 1] was tested, and the pEC50 was 5.81.
`Cc1nc2cc(-c3ccn(C(F)F)n3)c(O[C@H]3CCN4C(=O)OC[C@@H]4C3)cc2c(=O)n1Cc1ccc(C#N)cc1` [Example 11] gave a pEC50 of 7.46.

Source: patent US12497405B2, “Bicyclic heterocycle compounds methods of use thereof for the treatment of herpes viruses” (Merck Sharp & Dohme LLC, priority 2019, dated 2025)
